The record followed here is patent US7960427B2, “5-hydroxyindole-3-carboxylate derivatives and uses thereof” (priority 2004, dated 2011).

One data set deals with 2.2.15 cells. The data set is described as follows: Cytotoxicity (TC50) in 2.2.15 cells. Format: cell-based. The procedure:
(§1) All compounds were evaluated for their anti-HBV activities, namely the ability to inhibit the replication of HBV DNA and the production of HBsAg and HBeAg in HBV-infected 2.2.15 cells.
(§2) The samples were dissolved in DMSO for appropriate concentrations, and then each was diluted 3-fold with culture medium. The 2.2.15 cells were planted into 96-well culture plates. […] The culture supernatants and 2.2.15 cells were collected respectively on the 8th plant day. The secretion concentrations of HBsAg and HBeAg in the culture supernatants were measured by RIA on SPRIA Kit for Detection of HBsAg and HBeAg (Beijing North Institute of Biological Technology), and the replication of HBV DNA was measured by dot hybridization with a^32PdCTP (FuRui Biological Technology Ltd., China).

Another data set has as its system HBV DNA. The data set is described as follows: In vitro anti-HBV activity: replication of HBV DNA in 2.2.15 cells (dot hybridization). Format: cell-based, Hepatitis B virus (HBV). As to conditions: for IC50: Hepatitis B virus, read-out: DNA replication IC50; for DNA replication SI: selectivity index. The procedure:
as §1, §2

A further data set deals with T1, HIV-1 protease (Human immunodeficiency virus type 1 group M subtype B, UniProt P04585).
T1 construct: The genetically engineered target enzyme (HIV-1 protease, preserved at −85° C.)
Briefly: Anti-HIV-1 protease activity (fluorescence labeled substrate). Format: biochemical. The following applies: for inhibition ratio at 0.5 ug/ml: sample concentration 0.5 ug/ml; for inhibition ratio at 2.0 ug/ml: sample concentration 2.0 ug/ml; for inhibition ratio at 10 ug/ml: sample concentration 10 ug/ml; for inhibition ratio at 50 ug/ml: sample concentration 50 ug/ml; for inhibition ratio at 250 ug/ml: sample concentration 250 ug/ml. The procedure: HIV-1 protease can cut the fluorescence labeled substrate under optimal condition and reaction system, so the activity of enzyme is determined by the fluorescence in the product of enzymatic reaction. The samples are added into the reaction system to observe the inhibitive effect on the enzyme.
The samples and the reference drug Indinavir ([…].) were dissolved in DMSO or redistilled water for appropriate concentration. Each was diluted 5-fold and then added into the buffer containing fluorescence labeled substrate (MP Co.). The genetically engineered target enzyme (HIV-1 protease, preserved at −85° C.) was added to the buffer and incubated under the optimal reaction condition. The fluorescence was determined by FLUO star Galaxy fluorometer.

≈ marks a conversion by molar mass, not a printed value. Counter-ions that a name gives are not always drawn.

In general, IC50 refers to the midpoint of a concentration-inhibition curve. On to `CCOC(=O)c1c(CSc2ccc(F)cc2)n(C)c2cc(Br)c(O)c(CN3CCN(C)CC3)c12` [Example 17, Ethyl 6-bromo-5-hydroxy-1-methyl-4-[(4-methyl-1-piperazinyl)methyl]-2-[(4-fluorophenyl)thiomethyl]-1H-indole-3-carboxylate dihydrochloride], for which the TC50 with 2.2.15 cells was 62.50 µg/mL. In addition, in the data set on HBV DNA, the IC50 was 17.8 µg/mL and the “DNA replication SI” value turned out to be 3.5. Besides, on HIV-1 protease, the “inhibition ratio at 0.5 ug/ml” value is on record as −6.1, the “inhibition ratio at 2.0 ug/ml” value is −8.3, the “inhibition ratio at 10 ug/ml” value was −13.0 and the “inhibition ratio at 50 ug/ml” value is reported as −17.3. In addition, the “inhibition ratio at 250 ug/ml” value on HIV-1 protease came out at 27.6.

In turn, `CCOC(=O)c1c(CSc2ccc(F)cc2)n(C2CC2)c2cc(Br)c(O)c(CN3CCN(C)CC3)c12` [Example 19, Ethyl 6-bromo-1-cyclopropyl-5-hydroxy-4-[(4-methyl-1-piperazinyl)methyl]-2-[(4-fluorophenyl)thiomethyl]-1H-indole-3-carboxylate dihydrochloride] returned a TC50 with 2.2.15 cells of 37.04 µg/mL. Moreover, in the data set on HBV DNA, the IC50 came to 13 µg/mL and the “DNA replication SI” value is given as 2.85. Also, at HIV-1 protease, the IC50 was 232 µM, the “inhibition ratio at 0.5 ug/ml” value is recorded as −5.6, the “inhibition ratio at 2.0 ug/ml” value is reported as −8.9 and the “inhibition ratio at 10 ug/ml” value is recorded as −8.9. Besides, at HIV-1 protease, the “inhibition ratio at 50 ug/ml” value is on record as 20.7 and the “inhibition ratio at 250 ug/ml” value is on record as 63.9.

For `CCOC(=O)c1c(CS(=O)(=O)c2cccc(OC)c2)n(C)c2cc(Br)c(O)c(CN(C)C)c12` [Example 55, Ethyl 6-bromo-4-[(dimethylamino)methyl]-5-hydroxy-1-methyl-2-[(3-methoxyphenyl)sulfonylmethyl]-1H-indole-3-carboxylate], the TC50 in the data set with 2.2.15 cells is 21.56 µg/mL (≈ 40 µM). Moreover, in the data set on HBV DNA, the IC50 was determined as 2.2 µg/mL (≈ 4.08 µM) and the “DNA replication SI” value was 9.7. On HIV-1 protease, inhibition was half-maximal at 49 µM (IC50), the “inhibition ratio at 0.5 ug/ml” value is reported as 2.1, the “inhibition ratio at 2.0 ug/ml” value turned out to be 6.7 and the “inhibition ratio at 10 ug/ml” value was found to be 0.1. At HIV-1 protease, the “inhibition ratio at 50 ug/ml” value amounted to 30.5 and the “inhibition ratio at 250 ug/ml” value came out at 98.0.

`CCOC(=O)c1c(C[S+]([O-])c2ccc(C)cc2)n(C)c2ccc(O)c(Cn3ccnc3C)c12` (centres unmarked) [Example 142, Ethyl 5-hydroxy-1-methyl-4-[(2-methyl-1-imidazolyl)methyl]-2-[(4-methylphenyl)sulfinylmethyl]-1H-indole-3-carboxylate]: in the data set on 2.2.15 cells, the TC50 turned out to be 106.83 µg/mL (≈ 229 µM). Also, in the data set with HBV DNA, the IC50 is 23.8 µg/mL (≈ 51.1 µM) and the “DNA replication SI” value was 4.49.

In the data set with 2.2.15 cells, `CCOC(=O)c1c(C[S+]([O-])c2ccccc2)n(C)c2cc(Br)c(O)c(Cn3cncn3)c12` (centres unmarked) [Example 146, Ethyl 6-bromo-5-hydroxy-1-methyl-4-[(1H-1,2,4-triazol-1-yl)methyl]-2-(phenylsulfinylmethyl)-1H-indole-3-carboxylate] displayed a TC50 of 40.0 µg/mL (≈ 77.3 µM). For the same molecule, in the data set on HBV DNA, the IC50 turned out to be 13.1 µg/mL (≈ 25.3 µM) and the “DNA replication SI” value was found to be 3.06.

In turn, `CCOC(=O)c1c(C[S+]([O-])c2ccccc2OC)n(C)c2cc(Br)c(O)c(CNC(=N)N)c12.Cl` (centres unmarked) [Example 151, Ethyl 6-bromo-4-(guanidinylmethyl)-5-hydroxy-1-methyl-2-[(2-methoxyphenyl)-sulfinylmethyl]-1H-indole-3-carboxylate hydrochloride] registered a TC50 in the data set with 2.2.15 cells of 64.15 µg/mL. Moreover, in the data set with HBV DNA, the IC50 came to 1.8 µg/mL and the “DNA replication SI” value is on record as 35.6.

As for `CCOC(=O)c1c(C[S+]([O-])c2ccc(C)cc2)n(C)c2cc(Br)c(O)c(CNC(=N)N)c12.Cl` (centres unmarked) [Example 152, Ethyl 6-bromo-4-(guanidinylmethyl)-5-hydroxy-1-methyl-2-[(4-methylphenyl)sulfinylmethyl]-1H-indole-3-carboxylate hydrochloride], the TC50 with 2.2.15 cells is 192.45 µg/mL. Further, in the data set with HBV DNA, the IC50 stood at 10.2 µg/mL and the “DNA replication SI” value was 18.8.

`CCOC(=O)c1c(CS(=O)(=O)Cc2ccco2)n(C2CC2)c2cc(Br)c(O)c(Cn3ccnc3)c12` [Example 162, Ethyl 6-bromo-1-cyclopropyl-5-hydroxy-4-[(1-imidazolyl)methyl]-2-[(2-furylmethyl)sulfonylmethyl]-1H-indole-3-carboxylate]: in the data set on 2.2.15 cells, the TC50 is 128.30 µg/mL (≈ 228 µM). Also, in the data set with HBV DNA, the IC50 is 51.7 µg/mL (≈ 92 µM) and the “DNA replication SI” value amounted to 2.48.

In the data set with 2.2.15 cells, `CCOC(=O)c1c(CS(=O)(=O)Cc2ccc(F)cc2)n(C)c2cc(Br)c(O)c(Cn3ccnc3)c12` [Example 163, Ethyl 6-bromo-5-hydroxy-4-[(1-imidazolyl)methyl]-1-methyl-2-[(4-fluorobenzyl)sulfonylmethyl]-1H-indole-3-carboxylate] displayed a TC50 of 21.39 µg/mL (≈ 37.9 µM). Also, in the data set on HBV DNA, the IC50 came out at 0.68 µg/mL (≈ 1.2 µM) and the “DNA replication SI” value turned out to be 31.45.

In the data set on 2.2.15 cells, `CCOC(=O)c1c(CS(=O)(=O)c2ccc(C)cc2)n(C)c2ccc(O)c(Cn3ccnc3)c12` [Example 164, Ethyl 5-hydroxy-4-[(1-imidazolyl)methyl]-1-methyl-2-[(4-methylphenyl)sulfonylmethyl]-1H-indole-3-carboxylate] showed a TC50 of 17.7 µg/mL (≈ 37.9 µM). Also, in the data set with HBV DNA, the IC50 is 2 µg/mL (≈ 4.28 µM) and the “DNA replication SI” value was 8.9.

With `CCOC(=O)c1c(CS(=O)(=O)Cc2ccccc2F)n(C2CC2)c2cc(Br)c(O)c(Cn3ccnc3C)c12` [Example 165, Ethyl 6-bromo-1-cyclopropyl-5-hydroxy-4-[(2-methyl-1-imidazolyl)methyl]-2-[(2-fluorobenzyl)sulfonylmethyl]-1H-indole-3-carboxylate], the TC50 in the data set on 2.2.15 cells worked out at 7.76 µg/mL (≈ 12.8 µM). In the data set with HBV DNA, the IC50 turned out to be 3.14 µg/mL (≈ 5.19 µM) and the “DNA replication SI” value is 2.47.

`CCOC(=O)c1c(CS(=O)(=O)c2ccccc2)n(C)c2cc(Br)c(O)c(Cn3ccnc3C)c12` [Example 166, Ethyl 6-bromo-5-hydroxy-1-methyl-4-[(2-methyl-1-imidazolyl)methyl]-2-(phenylsulfonylmethyl)-1H-indole-3-carboxylate] yielded a TC50 in the data set with 2.2.15 cells of 53.42 µg/mL (≈ 97.8 µM). Also, in the data set on HBV DNA, the IC50 is 7.53 µg/mL (≈ 13.8 µM) and the “DNA replication SI” value was 7.09.

`CCOC(=O)c1c(CS(=O)(=O)Cc2ccccc2)n(C)c2cc(Br)c(O)c(Cn3ccnc3C)c12` [Example 168, Ethyl 6-bromo-5-hydroxy-1-methyl-4-[(2-methyl-1-imidazolyl)methyl]-2-(benzylsulfonylmethyl)-1H-indole-3-carboxylate] came in with a TC50 in the data set with 2.2.15 cells of 35.61 µg/mL (≈ 63.5 µM). In addition, in the data set with HBV DNA, the IC50 turned out to be 7.04 µg/mL (≈ 12.6 µM) and the “DNA replication SI” value was determined as 5.06.

For `CCOC(=O)c1c(CS(=O)(=O)Cc2ccccc2)n(C)c2cc(Br)c(O)c(CNC(=N)N)c12` [Example 173, Ethyl 6-bromo-4-(guanidinylmethyl)-5-hydroxy-1-methyl-2-(benzylsulfonylmethyl)-1H-indole-3-carboxylate], in the data set with 2.2.15 cells, the TC50 is 24.69 µg/mL (≈ 45.9 µM). In addition, in the data set with HBV DNA, the IC50 was 5.04 µg/mL (≈ 9.38 µM) and the “DNA replication SI” value turned out to be 4.90.

`CCOC(=O)c1c(CS(=O)(=O)c2ccc(C(F)(F)F)cc2)n(C)c2cc(Br)c(O)c(Cn3ccnc3C)c12` [Example 180, Ethyl 6-bromo-5-hydroxy-1-methyl-4-[(2-methyl-1-imidazolyl)methyl]-2-[(4-trifluoromethylphenyl)sulfonylmethyl]-1H-indole-3-carboxylate] returned a TC50 in the data set with 2.2.15 cells of 51.36 µg/mL (≈ 83.6 µM). Also, in the data set with HBV DNA, the IC50 stood at 3.56 µg/mL (≈ 5.79 µM) and the “DNA replication SI” value stood at 14.43.

In the case of `CCOC(=O)c1c(C[S+]([O-])Cc2ccccc2F)n(C2CC2)c2cc(Br)c(O)c(Cn3ccnc3C)c12` (centres unmarked) [Example 183, Ethyl 6-bromo-1-cyclopropyl-5-hydroxy-4-[(2-methyl-1-imidazolyl)methyl]-2-[(2-fluorobenzyl)sulfinylmethyl]-1H-indole-3-carboxylate], the TC50 with 2.2.15 cells amounted to 37.04 µg/mL (≈ 62.9 µM). Also, in the data set on HBV DNA, the IC50 amounted to 3.45 µg/mL (≈ 5.86 µM) and the “DNA replication SI” value is on record as 10.74.

In the data set on 2.2.15 cells, `CCOC(=O)c1c(C[S+]([O-])Cc2ccc(F)cc2)n(C)c2cc(Br)c(O)c(Cn3ccnc3C)c12` (centres unmarked) [Example 184, Ethyl 6-bromo-5-hydroxy-1-methyl-4-[(2-methyl-1-imidazolyl)methyl]-2-[(4-fluorobenzyl)sulfinylmethyl]-1H-indole-3-carboxylate] returned a TC50 of 53.42 µg/mL (≈ 95 µM). In the data set on HBV DNA, the IC50 came to 0.94 µg/mL (≈ 1.67 µM) and the “DNA replication SI” value was 56.83.

As to `CCOC(=O)c1c(CS(=O)(=O)Cc2ccc(F)cc2)n(C)c2cc(Br)c(O)c(Cn3ccnc3C)c12` [Example 185, Ethyl 6-bromo-5-hydroxy-1-methyl-4-[(2-methyl-1-imidazolyl)methyl]-2-[(4-fluorobenzyl)sulfonylmethyl]-1H-indole-3-carboxylate], the TC50 in the data set with 2.2.15 cells was 12.35 µg/mL (≈ 21.3 µM). In the data set with HBV DNA, the IC50 came out at 1.3 µg/mL (≈ 2.25 µM) and the “DNA replication SI” value worked out at 9.5.
